According to the kinase profiling compilation of Christmann-Franck et al. (2016):

Key:
Assay in all cases: KINOMEscan competition binding
Conditions in all cases: compound 1.0 µM
PAK7 (human) = PAK7 (human) (UniProt Q9P286)
PIM3 (human) = PIM3 (human) (UniProt Q86V86)
PTK2B (human) = PTK2B (human) (UniProt Q14289)
NLK (human) = NLK (human) (UniProt Q9UBE8)
SGK110 (human) = SGK110 (human) (UniProt P0C264)
GRK1 (human) = GRK1 (human) (UniProt Q15835)
[1] = test system: EGFR (human), P00533 [T790M/L858R]
ACVR1B (human) = ACVR1B (human) (UniProt P36896)
[2] = test system: EGFR (human), P00533 [A750P; 747-749 del]
PRKCQ (human) = PRKCQ (human) (UniProt Q04759)
Chain of PRKCQ (human) (Q04759 whole entry, looked up): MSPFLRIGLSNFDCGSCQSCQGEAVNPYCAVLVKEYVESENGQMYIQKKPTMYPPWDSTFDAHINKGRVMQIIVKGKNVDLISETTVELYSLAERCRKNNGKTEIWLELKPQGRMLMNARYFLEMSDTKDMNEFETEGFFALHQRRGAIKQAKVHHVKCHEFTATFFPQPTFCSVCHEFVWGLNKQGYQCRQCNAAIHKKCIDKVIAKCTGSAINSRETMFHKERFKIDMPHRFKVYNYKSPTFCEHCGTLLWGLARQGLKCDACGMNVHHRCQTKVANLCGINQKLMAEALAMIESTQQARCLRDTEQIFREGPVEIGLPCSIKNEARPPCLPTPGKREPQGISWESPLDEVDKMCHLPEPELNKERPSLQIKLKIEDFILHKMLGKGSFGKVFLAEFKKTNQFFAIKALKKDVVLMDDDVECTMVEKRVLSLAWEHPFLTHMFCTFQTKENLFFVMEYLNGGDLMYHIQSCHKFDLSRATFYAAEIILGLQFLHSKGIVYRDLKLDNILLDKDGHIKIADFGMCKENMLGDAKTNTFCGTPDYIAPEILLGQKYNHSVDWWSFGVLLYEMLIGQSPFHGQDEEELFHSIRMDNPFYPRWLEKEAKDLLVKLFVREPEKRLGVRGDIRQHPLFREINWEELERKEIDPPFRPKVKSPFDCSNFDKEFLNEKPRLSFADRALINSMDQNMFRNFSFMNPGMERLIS

PRKCD (human) = PRKCD (human) (UniProt Q05655)
LATS1 (human) = LATS1 (human) (UniProt O95835)
PLK1 (human) = PLK1 (human) (UniProt P53350)
[3] = biological target: TYK2 JH2 pseudokinase (human) (UniProt P29597)
EPHB4 (human) = EPHB4 (human) (UniProt P54760)
[4] = test system: FLT3 (human), P36888 [ITD]
AURKA (human) = AURKA (human) (UniProt O14965)
Chain of AURKA (human) (O14965 whole entry, looked up): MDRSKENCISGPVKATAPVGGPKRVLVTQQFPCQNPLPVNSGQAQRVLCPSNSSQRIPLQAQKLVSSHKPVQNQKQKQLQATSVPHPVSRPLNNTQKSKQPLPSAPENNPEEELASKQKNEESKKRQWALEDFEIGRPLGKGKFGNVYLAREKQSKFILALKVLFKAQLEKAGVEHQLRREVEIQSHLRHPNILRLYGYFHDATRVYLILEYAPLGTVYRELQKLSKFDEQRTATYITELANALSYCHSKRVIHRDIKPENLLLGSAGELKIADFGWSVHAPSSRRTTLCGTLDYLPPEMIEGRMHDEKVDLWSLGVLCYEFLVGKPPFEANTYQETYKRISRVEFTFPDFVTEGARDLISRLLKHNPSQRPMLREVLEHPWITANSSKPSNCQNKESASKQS

PDGFRA (human) = PDGFRA (human) (UniProt P16234)
MAPKAPK5 (human) = MAPKAPK5 (human) (UniProt Q8IW41)
CSF1R (human) = CSF1R (human) (UniProt P07333)
STK35 (human) = STK35 (human) (UniProt Q8TDR2)
[5] = biological target: JAK1 JH1 catalytic (human) (UniProt P23458)
MYLK3 (human) = MYLK3 (human) (UniProt Q32MK0)
MAP2K2 (human) = MAP2K2 (human) (UniProt P36507)
CSNK1D (human) = CSNK1D (human) (UniProt P48730)
ICK (human) = ICK (human) (UniProt Q9UPZ9)
CSNK2A2 (human) = CSNK2A2 (human) (UniProt P19784)
STK17B (human) = STK17B (human) (UniProt O94768)
Chain of STK17B (human) (O94768 whole entry, looked up): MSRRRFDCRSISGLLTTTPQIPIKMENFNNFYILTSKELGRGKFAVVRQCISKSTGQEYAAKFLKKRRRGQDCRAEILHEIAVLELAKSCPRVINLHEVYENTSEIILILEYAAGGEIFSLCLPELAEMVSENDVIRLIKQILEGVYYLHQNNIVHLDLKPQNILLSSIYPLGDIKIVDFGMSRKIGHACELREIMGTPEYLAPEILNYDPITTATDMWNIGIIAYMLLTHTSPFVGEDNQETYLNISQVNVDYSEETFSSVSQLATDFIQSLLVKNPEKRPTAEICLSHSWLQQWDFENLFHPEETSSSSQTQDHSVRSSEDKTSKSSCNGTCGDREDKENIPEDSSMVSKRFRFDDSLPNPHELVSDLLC

GRK7 (human) = GRK7 (human) (UniProt Q8WTQ7)
Chain of GRK7 (human) (Q8WTQ7 whole entry, looked up): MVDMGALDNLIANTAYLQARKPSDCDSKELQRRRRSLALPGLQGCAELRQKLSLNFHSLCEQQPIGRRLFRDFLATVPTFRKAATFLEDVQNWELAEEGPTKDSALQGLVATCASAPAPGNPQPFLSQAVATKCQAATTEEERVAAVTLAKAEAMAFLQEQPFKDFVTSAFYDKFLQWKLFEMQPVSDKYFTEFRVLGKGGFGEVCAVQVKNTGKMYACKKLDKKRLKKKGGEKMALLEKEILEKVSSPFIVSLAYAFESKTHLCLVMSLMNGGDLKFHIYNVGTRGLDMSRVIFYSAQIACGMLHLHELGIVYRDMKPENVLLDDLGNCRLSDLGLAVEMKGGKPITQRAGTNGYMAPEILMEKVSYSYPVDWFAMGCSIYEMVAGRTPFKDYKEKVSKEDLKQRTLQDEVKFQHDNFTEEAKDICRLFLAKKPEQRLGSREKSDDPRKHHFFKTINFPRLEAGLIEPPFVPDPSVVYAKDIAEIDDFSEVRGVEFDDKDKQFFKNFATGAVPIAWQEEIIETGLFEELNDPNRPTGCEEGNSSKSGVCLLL

STK3 (human) = STK3 (human) (UniProt Q13188)
ACVR2B (human) = ACVR2B (human) (UniProt Q13705)
FER (human) = FER (human) (UniProt P16591)
ROCK2 (human) = ROCK2 (human) (UniProt O75116)
Chain of ROCK2 (human) (O75116 whole entry, looked up): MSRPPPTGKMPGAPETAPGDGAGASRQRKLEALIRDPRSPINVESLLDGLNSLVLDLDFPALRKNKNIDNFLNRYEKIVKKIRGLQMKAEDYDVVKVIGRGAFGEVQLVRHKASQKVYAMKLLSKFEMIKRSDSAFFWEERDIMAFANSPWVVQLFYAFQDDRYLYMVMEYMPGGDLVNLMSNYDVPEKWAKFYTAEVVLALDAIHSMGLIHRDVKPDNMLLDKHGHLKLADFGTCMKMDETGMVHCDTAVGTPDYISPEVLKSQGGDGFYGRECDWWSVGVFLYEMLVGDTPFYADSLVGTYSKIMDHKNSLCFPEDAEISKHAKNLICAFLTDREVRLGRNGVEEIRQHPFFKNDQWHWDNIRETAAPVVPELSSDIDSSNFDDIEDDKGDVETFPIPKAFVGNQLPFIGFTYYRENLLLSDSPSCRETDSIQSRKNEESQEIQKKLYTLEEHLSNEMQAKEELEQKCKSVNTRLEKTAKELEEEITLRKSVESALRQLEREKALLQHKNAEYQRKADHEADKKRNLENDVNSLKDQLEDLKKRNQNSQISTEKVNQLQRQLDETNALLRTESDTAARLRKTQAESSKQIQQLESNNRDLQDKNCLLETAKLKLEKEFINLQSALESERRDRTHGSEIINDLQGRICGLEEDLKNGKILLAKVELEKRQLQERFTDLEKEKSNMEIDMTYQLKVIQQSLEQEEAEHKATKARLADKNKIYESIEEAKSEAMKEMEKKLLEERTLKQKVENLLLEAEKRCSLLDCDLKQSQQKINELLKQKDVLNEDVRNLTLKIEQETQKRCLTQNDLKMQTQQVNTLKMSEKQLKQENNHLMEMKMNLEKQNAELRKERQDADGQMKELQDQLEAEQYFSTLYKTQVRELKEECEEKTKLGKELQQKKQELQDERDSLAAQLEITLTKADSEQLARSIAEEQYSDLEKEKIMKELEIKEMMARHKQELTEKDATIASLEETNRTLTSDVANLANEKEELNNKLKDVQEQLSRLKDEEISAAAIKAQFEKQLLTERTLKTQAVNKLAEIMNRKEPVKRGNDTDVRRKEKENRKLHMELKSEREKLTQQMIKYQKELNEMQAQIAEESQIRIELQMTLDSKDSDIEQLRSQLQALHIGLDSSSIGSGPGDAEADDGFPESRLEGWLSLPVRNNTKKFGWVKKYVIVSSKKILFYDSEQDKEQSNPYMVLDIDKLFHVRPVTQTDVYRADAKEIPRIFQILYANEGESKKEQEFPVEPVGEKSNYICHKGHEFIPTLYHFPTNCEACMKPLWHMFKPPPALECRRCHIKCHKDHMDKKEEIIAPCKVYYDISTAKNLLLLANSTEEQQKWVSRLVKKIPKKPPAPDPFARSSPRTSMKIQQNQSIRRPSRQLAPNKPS

PTK6 (human) = PTK6 (human) (UniProt Q13882)
CDK19 (human) = CDK19 (human) (UniProt Q9BWU1)
SRC (human) = SRC (human) (UniProt P12931)
Chain of SRC (human) (P12931 whole entry, looked up): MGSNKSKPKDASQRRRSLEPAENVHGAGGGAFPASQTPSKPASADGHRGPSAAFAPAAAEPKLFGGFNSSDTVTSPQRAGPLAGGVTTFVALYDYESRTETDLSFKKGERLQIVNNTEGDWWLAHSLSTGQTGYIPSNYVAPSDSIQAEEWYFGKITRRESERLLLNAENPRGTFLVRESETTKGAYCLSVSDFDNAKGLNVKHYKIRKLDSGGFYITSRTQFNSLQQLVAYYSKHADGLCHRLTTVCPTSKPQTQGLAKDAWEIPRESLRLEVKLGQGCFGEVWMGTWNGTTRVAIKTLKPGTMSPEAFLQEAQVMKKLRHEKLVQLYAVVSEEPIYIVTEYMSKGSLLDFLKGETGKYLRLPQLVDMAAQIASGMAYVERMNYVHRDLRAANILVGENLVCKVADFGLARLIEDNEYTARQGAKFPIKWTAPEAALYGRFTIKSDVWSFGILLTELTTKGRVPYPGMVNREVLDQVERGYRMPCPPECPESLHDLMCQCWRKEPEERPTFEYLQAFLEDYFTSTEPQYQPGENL

NTRK2 (human) = NTRK2 (human) (UniProt Q16620)
PKMYT1 (human) = PKMYT1 (human) (UniProt Q99640)
CAMKK1 (human) = CAMKK1 (human) (UniProt Q8N5S9)
[6] = test system: ABL1 (human), P00519 [Q252H]

Chain of PAK7 (human) (Q9P286 whole entry, looked up): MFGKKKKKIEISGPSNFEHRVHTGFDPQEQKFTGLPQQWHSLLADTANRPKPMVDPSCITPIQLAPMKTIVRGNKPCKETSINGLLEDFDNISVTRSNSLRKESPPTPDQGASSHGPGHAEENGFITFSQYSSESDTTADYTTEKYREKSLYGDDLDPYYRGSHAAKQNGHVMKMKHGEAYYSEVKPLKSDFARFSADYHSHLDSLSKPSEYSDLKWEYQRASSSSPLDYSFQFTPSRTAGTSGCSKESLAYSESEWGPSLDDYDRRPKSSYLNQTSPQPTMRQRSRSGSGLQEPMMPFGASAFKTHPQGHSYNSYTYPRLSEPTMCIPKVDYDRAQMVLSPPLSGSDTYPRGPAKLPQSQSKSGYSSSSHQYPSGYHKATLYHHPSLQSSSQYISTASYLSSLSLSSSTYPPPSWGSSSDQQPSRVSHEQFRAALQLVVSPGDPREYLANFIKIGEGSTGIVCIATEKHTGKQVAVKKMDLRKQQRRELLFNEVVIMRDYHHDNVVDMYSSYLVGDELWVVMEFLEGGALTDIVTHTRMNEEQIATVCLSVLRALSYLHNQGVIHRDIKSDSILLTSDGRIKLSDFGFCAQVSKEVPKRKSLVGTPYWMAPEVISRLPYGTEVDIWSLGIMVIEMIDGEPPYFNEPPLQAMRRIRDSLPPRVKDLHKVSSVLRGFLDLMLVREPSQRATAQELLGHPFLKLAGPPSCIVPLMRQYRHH

- inhibition of binding (PAK7 (human)): 0%
- inhibition of binding (PIM3 (human)): 5%
- inhibition of binding (PTK2B (human)): 0%
- inhibition of binding (NLK (human)): 0%
- inhibition of binding (SGK110 (human)): 3%
- inhibition of binding (GRK1 (human)): 0%
- inhibition of binding [1]: 0%
- inhibition of binding (ACVR1B (human)): 3%
- inhibition of binding [2]: 0%
- inhibition of binding (PRKCQ (human)): 0%
- inhibition of binding (PRKCD (human)): 4%
- inhibition of binding (LATS1 (human)): 4%
- inhibition of binding (PLK1 (human)): 30%
- inhibition of binding [3]: 12%
- inhibition of binding (EPHB4 (human)): 4%
- inhibition of binding [4]: 0%
- inhibition of binding (AURKA (human)): 0%
- inhibition of binding (PDGFRA (human)): 11%
- inhibition of binding (MAPKAPK5 (human)): 0%
- inhibition of binding (CSF1R (human)): 0%
- inhibition of binding (STK35 (human)): 0%
- inhibition of binding [5]: 38%
- inhibition of binding (MYLK3 (human)): 0%
- inhibition of binding (MAP2K2 (human)): 0%
- inhibition of binding (CSNK1D (human)): 27%
- inhibition of binding (ICK (human)): 0%
- inhibition of binding (CSNK2A2 (human)): 2%
- inhibition of binding (STK17B (human)): 0%
- inhibition of binding (GRK7 (human)): 3%
- inhibition of binding (STK3 (human)): 0%
- inhibition of binding (ACVR2B (human)): 0%
- inhibition of binding (FER (human)): 0%
- inhibition of binding (ROCK2 (human)): 0%
- inhibition of binding (PTK6 (human)): 0%
- inhibition of binding (CDK19 (human)): 0%
- inhibition of binding (SRC (human)): 6%
- inhibition of binding (NTRK2 (human)): 0%
- inhibition of binding (PKMYT1 (human)): 0%
- inhibition of binding (CAMKK1 (human)): 0%
- inhibition of binding [6]: 0%
Structure (SMILES): Nc1cc(C(F)(F)F)c(-c2cc(N3CCOCC3)nc(N3CCOCC3)n2)cn1
